Laboratory results: patent publication US20130035232A1, “INDUCTION AND STABILIZATION OF ENZYMATIC ACTIVITY IN MICROORGANISMS” (GEORGIA STATE UNIVERSITY RESEARCH FOUNDATION, INC., priority 2010, published 2013)

Experiments:
amidase = experiment: Amidase production on supplemented medium; type: cell-based; conditions: YEMEA, urea, cobalt, supplement 3.8 mM
Protocol: (§1) The induction of nitrile hydratase production and amidase production in various nitrile hydratase producing microorganisms was evaluated. All strains were grown on YEMEA medium containing 7.5 g/L of urea and 10 ppm cobalt (provided as cobalt chloride) supplemented with asparagine (ASN), glutamine (GLN), or both asparagine and glutamine. The asparagine and glutamine were added at a concentration of 3.8 mM. As a comparative, enzyme production with no supplementation was also tested. Growth temperature was in the range of 26° C. to 30° C.

nitrile hydratase [1] = experiment: Nitrile hydratase induction by inducers (Example 1); type: cell-based, Rhodococcus sp., strain DAP 96253; conditions: inducer 1000 ppm
Protocol: The induction of nitrile hydratase activity and amidase activity in Rhodococcus sp., strain DAP 96253, was evaluated using multiple types of inducers (1000 ppm). Three different samples were cultured in YEMEA medium containing 10 ppm cobalt and 7.5 g/L urea and supplemented with acrylonitrile, asparagine, or glutamine. The specific nitrile hydratase activity and the specific amidase activity in each sample was evaluated, and the results are provided below in Table 3, with activities provided in units/mg cdw (cell dry weight). One unit of nitrile hydratase activity relates to the ability to convert 1 μmol of acrylonitrile to its corresponding amide per minute, per milligram of cells (dry weight) at a pH of 7.0 and a temperature of 30° C. One unit of amidase activity relates to the ability to convert 1 μmol of acrylamide to its corresponding acid per minute, per milligram of cells (dry weight) pH of 7.0 and a temperature of 30° C.

nitrile hydratase [2] = experiment: Nitrile hydratase production on supplemented medium; type: cell-based; conditions: YEMEA, urea, cobalt, supplement 3.8 mM
Protocol: as §1

[3] = Brevibacterium ketoglutaricum ATCC 21533, 30 °C
[4] = Pseudomonas chloroaphis ATCC 13985, 26 °C
[5] = Pseudomonas chloroaphis ATCC 43051, 30 °C
[6] = Rhodococcus erythropolis ATCC 47072, 26 °C
[7] = Rhodococcus rhodochrous DAP 96622 ATCC 55898, 26 °C
[8] = Rhodococcus sp. DAP 96253 ATCC 55899, 30 °C

NC(=O)C[C@H](N)C(=O)O [Asparagine, asparagine]
Amidase Level Based on Growth Medium Supplementation (amidase; [3]): 0 Units/mg cdw | Amidase Level Based on Growth Medium Supplementation (amidase; [4]): 14 Units/mg cdw | Amidase Level Based on Growth Medium Supplementation (amidase; [5]): 0 Units/mg cdw | Amidase Level Based on Growth Medium Supplementation (amidase; [6]): 9 Units/mg cdw | Amidase Level Based on Growth Medium Supplementation (amidase; [7]): 10 Units/mg cdw | Amidase Level Based on Growth Medium Supplementation (amidase; [8]): 13 Units/mg cdw | Nitrile Hydratase Activity (nitrile hydratase [1]; Rhodococcus sp. DAP 96253, YEMEA, 10 ppm cobalt, 7.5 g/L urea): 170.50 Units/mg cdw | nitrile hydratase induction compared with acrylonitrile (nitrile hydratase [1]): exceeds the ability of acrylonitrile to induce such activity | Nitrile Hydratase Level Based on Growth Medium Supplementation (nitrile hydratase [2]; [3]): 30 Units/mg cdw | Nitrile Hydratase Level Based on Growth Medium Supplementation (nitrile hydratase [2]; [4]): 14 Units/mg cdw | Nitrile Hydratase Level Based on Growth Medium Supplementation (nitrile hydratase [2]; [5]): 28 Units/mg cdw | Nitrile Hydratase Level Based on Growth Medium Supplementation (nitrile hydratase [2]; [6]): 48 Units/mg cdw | Nitrile Hydratase Level Based on Growth Medium Supplementation (nitrile hydratase [2]; [7]): 158 Units/mg cdw | Nitrile Hydratase Level Based on Growth Medium Supplementation (nitrile hydratase [2]; [8]): 155 Units/mg cdw
